One assay concerns the target T1, TrkB receptor (Mus musculus, UniProt P15209).
T1 construct: Protein was extracted from primary neuronal cultures; endogenous in cells; host or cells: primary cortical neurons from E16 CD1 mouse embryos, 14 DIV
As to the kind of experiment: TrkB receptor phosphorylation (p-TrkB) by western blot in primary cortical neurons. In kind it is cell-based. The note with it: for TrkB phosphorylation after pre-treatment with inhibitor K252a: K252a 2 h prior to treatment, 6 h post-treatment. The procedure: 2.3.2. Dissection of Embryonic Primary Cortical Neurons. Neurons were obtained from embryonic brains as described elsewhere.^2 Briefly, time-pregnant mouse was sacrificed by cervical dislocation and the embryos were extracted at embryonic day 16 (E16). Cerebral cortices were dissected from the mouse embryos and meninges were removed in a solution of Hank's Balanced Salt Solution (HBSS) with 1% pen-strep (Invitrogen) and then digested with trypsin (Invitrogen) and DNAse (Sigma-Aldrich) for 10 min at 37° C. The tissue was mechanically dissociated, centrifuged at 1000 g for 5 min, and resuspended in CO2-equilibrated Neurobasal (NB) neuronal culture medium (Invitrogen) supplemented with 10% normal horse serum (NHS) (Invitrogen), 1% pen-strep (Invitrogen), 0.5 mM L-glutamine (Invitrogen), and 5.8 μL NaHCO3/mL (Sigma-Aldrich). The cell suspension was pre-plated at 37° C. for 30 min. Afterwards, the supernatant was collected, passed through a cell strainer with 100 μm pore size and centrifuged at 1000 g for 5 min. The pellet was resuspended in NB neuronal culture medium (1% NHS, 1% pen-strep, 0.5 mM L-glutamine, 22 μM glutamic acid (Sigma-Aldrich), 2% B27 (Gibco), and 5.8 μL NaHCO3/mL (Sigma-Aldrich), and plated at different densities (depending on the type of experiment, see below) directly on tissue culture plates coated with poly-D-lysine (Sigma-Aldrich). After 24 hs, the medium was replaced with serum-free neuronal culture medium (1% pen-strep, 0.5 mM L-glutamine, 2% B27, 5.8 μL NaHCO3/mL). Under these conditions, we obtained a neuron-enriched culture with a composition of approximately 10% glial cells.
BDNF PA Treatments and Cell Culture Procedures. Treatments were prepared by dissolving PA (including E2 Filler, E2 Filler+E4PEG, E2 Filler+Linear BDNF, E2 Filler+BDNF PAs) and BDNF peptide at different concentrations (0.5, 1.0 or 5.0 μM), in media without serum or B27 supplement or starvation media. Unless otherwise noted, BDNF PA, Linear BDNF PA, or E4PEG PAs were co-assembled at 10 mol % with E2 filler PA (total concentration of PA was 5.0, 10.0, or 50.0 μM respectively). For the co-assembly ratio study, BDNF PA was co-assembled at 10, 20, 50, 70, 90, and 100 mol %. Human/Murine/Rat BDNF protein (Peprotech) was resuspended at different concentrations (0.25, 0.5 and 1 nM) in starvation media.
For western blot, cells were cultured in 6 well plates at a density of approximately 900,000 cells/well for 14 DIV before being treated. Treatments were added for 2, 4, 6, 8, 12 or 24 h in vitro before protein was harvested. […] Protein was extracted after six hours of treatment.
Western Blot. Protein was extracted from primary neuronal cultures with Halt Protease and Phosphatase Inhibitor Cocktail (Thermo Scientific) and a BCA assay (Thermo Scientific) was performed to determine protein content of each sample. Cell protein was loaded into and separated using a 4-20% SDS-PAGE gel (Bio-Rad). It was then electrotransferred from the gel to a nitrocellulose membrane (Bio-Rad). The membranes were blocked with 5% milk solution (Bio-Rad) for 30 minutes followed by an overnight incubation with primary antibodies at 4° C. The following primary antibodies were used: rabbit anti-pTrkB (1:1000, Cell Signaling), rabbit anti-TrkB (1:1000, Cell Signaling), rabbit anti-Actin (1:2000, Sigma Aldrich), mouse anti-Actin (1:2000, Sigma Aldrich), rabbit anti-pPLCγ (1:1000, Cell Signaling), rabbit anti-PLCγ (1:1000, Cell Signaling), rabbit anti-pAKT (1:2000, Cell Signaling), mouse anti-AKT (1:2000, Cell Signaling), rabbit anti-pERK1+ERK2 (1:1000, Abcam), rabbit anti-ERK 1/2 (1:1000, Cell Signaling), rabbit anti-PSD95 (1:1000, Abcam), rabbit anti-MAP-2 (1:2000, BioLegend), and mouse anti-Tuj-1 (1:1000, BioLegend). Membranes were then incubated with their corresponding secondary HRP-conjugated antibodies (1:1000; ThermoFisher). Protein signals were detected using Radiance Bioluminescent ECL substrate (Azure Biosystems). […]
Background: A western blot detects proteins with antibodies after separation by electrophoresis.

The next assay deals with neuronal cells. In words: Neuronal maturation markers (MAP2, PSD95) by immunocytochemistry and western blot. In kind it is cell-based, mouse. The note with it: neuronal cells (14 DIV) cultured during 16 DIV with treatment. The procedure: Western Blot. Protein was extracted from primary neuronal cultures with Halt Protease and Phosphatase Inhibitor Cocktail (Thermo Scientific) and a BCA assay (Thermo Scientific) was performed to determine protein content of each sample. Cell protein was loaded into and separated using a 4-20% SDS-PAGE gel (Bio-Rad). It was then electrotransferred from the gel to a nitrocellulose membrane (Bio-Rad). The membranes were blocked with 5% milk solution (Bio-Rad) for 30 minutes followed by an overnight incubation with primary antibodies at 4° C. […] Protein signals were detected using Radiance Bioluminescent ECL substrate (Azure Biosystems). Densitometry analysis, standardized to total receptor content or Actin as a control for protein loading, was performed using ImageJ software.^3 For quantification, triplicate samples were analyzed and at least two different experiments were conducted. […]

Positions of bridges follow the written chain, without caps; N, C: chain ends. Non-standard residues stand in square brackets, D forms with d. Residues, ends and D or L forms follow the SMILES beside them. Chains are numbered I, II in the order given. *: point of attachment. PEG6 = NCCOCCOCCOCCOCCOCCOCCC(=O)O; Palmitoyl = CCCCCCCCCCCCCCCC(=O)*

T1 sequence (P15209 32-821): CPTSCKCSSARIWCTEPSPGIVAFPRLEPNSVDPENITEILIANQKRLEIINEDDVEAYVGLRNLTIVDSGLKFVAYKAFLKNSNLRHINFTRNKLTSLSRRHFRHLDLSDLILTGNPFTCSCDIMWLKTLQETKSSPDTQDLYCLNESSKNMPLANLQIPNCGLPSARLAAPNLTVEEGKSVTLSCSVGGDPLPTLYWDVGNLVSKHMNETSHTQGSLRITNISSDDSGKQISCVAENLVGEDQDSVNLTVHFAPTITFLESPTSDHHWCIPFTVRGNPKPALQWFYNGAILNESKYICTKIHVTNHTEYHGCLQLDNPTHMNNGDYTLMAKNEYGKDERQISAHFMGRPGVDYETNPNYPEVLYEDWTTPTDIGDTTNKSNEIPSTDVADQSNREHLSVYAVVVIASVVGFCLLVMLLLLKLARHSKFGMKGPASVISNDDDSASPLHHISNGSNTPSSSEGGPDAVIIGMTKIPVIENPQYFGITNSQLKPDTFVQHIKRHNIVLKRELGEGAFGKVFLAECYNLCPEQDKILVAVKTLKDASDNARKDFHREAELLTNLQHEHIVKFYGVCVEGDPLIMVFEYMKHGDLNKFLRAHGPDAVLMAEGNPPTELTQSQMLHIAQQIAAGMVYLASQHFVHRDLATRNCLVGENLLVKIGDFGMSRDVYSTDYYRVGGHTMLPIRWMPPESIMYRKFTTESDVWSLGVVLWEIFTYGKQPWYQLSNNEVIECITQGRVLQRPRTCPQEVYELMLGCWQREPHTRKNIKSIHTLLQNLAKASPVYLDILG

As for `CCCCCCCCCCCCCCCC(=O)N[C@H](C(=O)N[C@H](C(=O)N[C@@H](C)C(=O)N[C@@H](C)C(=O)N[C@@H](CCC(=O)O)C(=O)N[C@@H](CCC(=O)O)C(=O)N[C@@H](CCC(=O)O)C(=O)N[C@@H](CCC(=O)O)C(=O)NCCOCCOCCOCCOCCOCCOCCC(=O)NCCCC[C@@H]1NC(=O)[C@H]2CCCN2C(=O)[C@H](CCCNC(=N)N)NC(=O)[C@H](CCCCN)NC(=O)[C@H](CCCCN)NC1=O)C(C)C)C(C)C` [BDNF PA, RKK(aK)(dP)-(PEG6 Spacer)-EEEEAAVV-C16 (SEQ ID NO: 5)] (I: Palmitoyl-VVAAEEEE[PEG6] / II: cyclo(KKKR[dP]); amide I:C-II:1), at TrkB receptor (0.5, 1.0 and 5.0 μM, 6 h), the “dose dependence of TrkB activation” value was “no dose-dependent activation of TrkB”. The “activation of TrkB receptor, co-assembly ratio study” value at TrkB receptor (10-50 mol % BDNF PA co-assembled with E2 Filler PA, 6 h) is recorded as “increase in activation of TrkB receptor in comparison with the control conditions”; at TrkB receptor (90-100 mol % BDNF PA (do not form fibers), 6 h), “unable to activate the receptor to the same degree”. Moreover, the “TrkB phosphorylation after pre-treatment with inhibitor K252a” value at TrkB receptor is listed as “completely blocked”. The “MAP2 expression (neuronal maturation marker)” value in the assay with neuronal cells is listed as “significant increase”.

B1: BDNF protein: Human/Murine/Rat BDNF protein (Peprotech) (protein, UniProt P23560 19-247, looked up)
Neurotrophic factor BDNF …: APMKEANIRGQGGLAYPGVRTHGTLESVNGPKAGSRGLTSLADTFEHVIEELLDEDQKVRPNEENNKDADLYTSRVMLSSQVPLEPPLLFLLEEYKNYLDAANMSMRVRRHSDPARRGELSVCDSISEWVTAADKKTAVDMSGGTVTVLEKVPVSKGQLKQYFYETKCNPMGYTKEGCRGIDKRHWNSQCRTTQSYVRALTMDSKKRIGWRFIRIDTSCVCTLTIKRGR
For B1, the “persistence of p-TrkB” value with TrkB receptor (BDNF protein 0.25 nM, time course to 24 h) is reported as “no longer showing p-TrkB after 12 h”. In addition, the “TrkB phosphorylation after pre-treatment with inhibitor K252a” value with TrkB receptor is reported as “completely blocked”. The “MAP2 expression (neuronal maturation marker)” value in the assay with neuronal cells is given as “significant increase”.

Values taken from US12122811B2, “BDNF mimetic peptide amphiphiles” (Northwestern University, priority 2018, dated 2024).
